Drawing on PubChem BioAssay (NCI), this text covers TGI and GI50 for 11 compounds.

Among the test systems are 786-0 renal; HCT-15 colon; HS 578T breast; MDA-MB-231 breast; MDA-MB-435; NCI-H226 lung; NCI-H522 lung; NCI/ADR-RES ovarian; SF-295 CNS; SNB-75 CNS; UACC-62 melanoma.
Experiment in all cases: inhibition of tumour cell growth, NCI panel, 48 h

Each structure is given as a SMILES string. Values joined by “and” are separate entries in the source; they are usually repeats but may differ in a detail not shown here. Equal entries are not always repeated.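 Tested at 5 concentrations; 48 h exposure; 96-well plates; endpoints linearly interpolated, else capped at highest concentration. GI50: concentration for 50% inhibition of growth. TGI: total growth inhibition.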 Bounds are passed on as bounds.

On to `COc1c(C)c(C/C=C(\C)CCCCO[Si](c2ccccc2)(c2ccccc2)C(C)(C)C)c(OC)c(OC)c1OC`, for which the TGI with 786-0 renal is 40.5 µM; in the assay with HCT-15 colon, over 46.4 µM; in the assay on HS 578T breast it was over 100 µM; in the assay on MDA-MB-231 breast, over 100 µM; with MDA-MB-435, over 46.4 µM; in the assay on NCI-H226 lung it was over 100 µM. Further, the TGI is over 100 µM in the assay with NCI-H522 lung; 35.1 µM with NCI/ADR-RES ovarian; over 46.4 µM with SF-295 CNS; over 46.4 µM in the assay with SNB-75 CNS; over 46.4 µM with UACC-62 melanoma.

Consider `O=C(CCC(=O)c1ccc(Cl)cc1)NO`, for which the TGI in the assay with 786-0 renal, in the assay on HCT-15 colon, in the assay on HS 578T breast, in the assay with MDA-MB-231 breast, in the assay on MDA-MB-435 and in the assay on NCI-H226 lung was over 100 µM each time. The TGI in the assay with NCI-H522 lung, in the assay with NCI/ADR-RES ovarian, in the assay with SF-295 CNS, in the assay with SNB-75 CNS and in the assay on UACC-62 melanoma was over 100 µM throughout.

With `COc1ccc(N2C(=O)C3c4[nH]c5ccccc5c4C4CCC(C(C)(C)C)CC4C3C2=O)c(C)c1` (stereo unspecified), the TGI in the assay with 786-0 renal, with HCT-15 colon, with HS 578T breast, with MDA-MB-231 breast, in the assay with MDA-MB-435 and with NCI-H226 lung was over 100 µM each time. Moreover, the TGI in the assay with NCI-H522 lung, with NCI/ADR-RES ovarian, with SF-295 CNS, in the assay with SNB-75 CNS and in the assay on UACC-62 melanoma was over 100 µM each time.

With `FC(F)(F)c1cc(Cl)cnc1N/N=C(/c1ccccc1)c1ccccn1`, the TGI in the assay on 786-0 renal was 16.4 µM; with HCT-15 colon it was over 100 µM; in the assay on HS 578T breast, 5.98 µM; in the assay with MDA-MB-231 breast it was 40.2 µM; with MDA-MB-435 it was over 100 µM; with NCI-H226 lung, 8.03 µM. Further, the TGI is 8.31 µM in the assay on NCI-H522 lung; 6.76 µM with NCI/ADR-RES ovarian; 5.5 µM in the assay on SF-295 CNS; 3.33 µM in the assay with SNB-75 CNS; 13.2 µM in the assay on UACC-62 melanoma.

For `C[C@@]12C[C@@H](c3ccccc3O1)N1CCCCSC1=N2`, the TGI in the assay on 786-0 renal, in the assay with HCT-15 colon, in the assay on HS 578T breast, in the assay on MDA-MB-231 breast, with MDA-MB-435 and in the assay with NCI-H226 lung was over 100 µM in each case. The TGI with NCI-H522 lung, in the assay with NCI/ADR-RES ovarian, in the assay with SF-295 CNS, in the assay on SNB-75 CNS and in the assay on UACC-62 melanoma was over 100 µM in each case.

Turning to `O=S1(=O)NC(=NCc2c[nH]c3ccccc23)N(c2ccccc2)c2ccncc21`, the TGI was over 100 µM with 786-0 renal; over 100 µM with HCT-15 colon; 92.7 µM with HS 578T breast; over 100 µM in the assay with MDA-MB-231 breast; over 100 µM with MDA-MB-435; over 100 µM in the assay with NCI-H226 lung. Besides, the TGI was 92.7 µM in the assay with NCI-H522 lung; over 100 µM in the assay on NCI/ADR-RES ovarian; over 100 µM with SF-295 CNS; 43.3 µM with SNB-75 CNS; over 100 µM in the assay with UACC-62 melanoma.

As for `N#CC1=C(N)N(c2ccccc2)C(c2ccco2)C1(C#N)C#N` (stereo unspecified), the TGI was 35.1 µM in the assay on 786-0 renal; 43.2 µM with HCT-15 colon; over 100 µM in the assay with HS 578T breast; 35.1 µM in the assay with MDA-MB-231 breast; 71.8 µM in the assay on MDA-MB-435; 42 µM with NCI-H226 lung. The TGI in the assay with NCI-H522 lung was determined as 35.2 µM; in the assay on NCI/ADR-RES ovarian it was 56.2 µM; in the assay with SF-295 CNS, 93.9 µM; in the assay with SNB-75 CNS it was 66.8 µM; in the assay on UACC-62 melanoma, 59.3 µM.

`COc1cc2c(cc1OC)C(c1ccccc1CCCCl)=NCC2`: the TGI in the assay with 786-0 renal was over 100 µM; in the assay with HCT-15 colon, over 100 µM; in the assay on HS 578T breast, over 100 µM; with MDA-MB-231 breast, over 100 µM; in the assay with MDA-MB-435, 45.9 µM; in the assay on NCI-H226 lung, over 100 µM. In addition, the TGI with NCI-H522 lung, in the assay with NCI/ADR-RES ovarian, in the assay with SF-295 CNS, in the assay on SNB-75 CNS and with UACC-62 melanoma was over 100 µM in each case.

With `CC(C)CC(=O)OC[n+]1ccc(-c2c(COC(=O)NC(C)C)c(COC(=O)NC(C)C)c3n2CCC3)cc1`, the TGI in the assay on 786-0 renal, in the assay with HCT-15 colon, in the assay on HS 578T breast, in the assay on MDA-MB-231 breast, with MDA-MB-435 and in the assay with NCI-H226 lung was over 100 µM in each case. The TGI with NCI-H522 lung, in the assay on NCI/ADR-RES ovarian, in the assay with SF-295 CNS, in the assay on SNB-75 CNS and in the assay with UACC-62 melanoma was over 100 µM throughout.

Turning to `COc1cc(/C=C2\S/C(=N/Nc3nc(-c4ccc(Br)cc4)cs3)NC2=O)cc(OC)c1OC`, the TGI turned out to be 26.5 µM in the assay with 786-0 renal; 36.1 µM in the assay on HCT-15 colon; 89.5 µM with HS 578T breast; 47.6 µM in the assay on MDA-MB-231 breast; 46.3 µM in the assay on MDA-MB-435; 11.7 µM in the assay on NCI-H226 lung. The TGI with NCI-H522 lung is 30.2 µM; in the assay on NCI/ADR-RES ovarian, 35.1 µM; in the assay on SF-295 CNS, 36.6 µM; in the assay with SNB-75 CNS it was 77.2 µM; in the assay on UACC-62 melanoma, 25.4 µM.

Take `Cc1c2cnccc2c(C)c2c1c1ccccc1n2CCCN`: the TGI is 0.564 µM in the assay with 786-0 renal; 0.724 µM and 1.11 µM in the assay with HCT-15 colon; 2.37 µM with HS 578T breast; 0.439 µM with MDA-MB-231 breast; 0.46 µM in the assay with MDA-MB-435; 1.86 µM and 2.78 µM in the assay on NCI-H226 lung. Further, the TGI in the assay with NCI-H522 lung is 1.28 µM and 0.281 µM; in the assay on NCI/ADR-RES ovarian it was 1.04 µM and 1.16 µM; with SF-295 CNS it was 0.865 µM and 1.24 µM; in the assay on SNB-75 CNS it was 1.48 µM and 0.368 µM; in the assay on UACC-62 melanoma, 1.7 µM and 1.75 µM. Further, the GI50 was 1.18 µM with NCI-H226 lung; 0.108 µM with NCI-H522 lung; 0.285 µM and 0.24 µM in the assay on SF-295 CNS; 0.169 µM in the assay on SNB-75 CNS; 0.517 µM with UACC-62 melanoma.
